Data on 40 molecules can be found in ChEMBL document CHEMBL5625200 (Eur J Med Chem, 2023).

The assay addresses T1, Endothelin-1 receptor (Homo sapiens, UniProt P25101).
T1 sequence (P25101 whole entry): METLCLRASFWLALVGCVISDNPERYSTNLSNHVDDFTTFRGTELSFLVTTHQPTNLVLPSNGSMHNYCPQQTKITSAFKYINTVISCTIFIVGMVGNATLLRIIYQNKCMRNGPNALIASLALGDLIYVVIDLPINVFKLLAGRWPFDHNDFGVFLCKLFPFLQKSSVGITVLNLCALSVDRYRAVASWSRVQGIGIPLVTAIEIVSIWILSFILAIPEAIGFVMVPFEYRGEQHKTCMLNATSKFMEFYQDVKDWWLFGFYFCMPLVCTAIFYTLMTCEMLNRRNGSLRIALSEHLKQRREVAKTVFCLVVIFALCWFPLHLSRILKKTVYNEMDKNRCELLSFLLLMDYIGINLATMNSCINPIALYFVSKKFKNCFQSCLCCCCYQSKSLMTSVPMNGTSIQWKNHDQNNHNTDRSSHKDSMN
As to the kind of experiment: Antagonist activity against human ET-1 by ELISA analysis. The assay is classed as functional.
For the molecule `COc1ccccc1Oc1c(NS(C)(=O)=O)nc(-c2ncccn2)nc1OCC(F)F`, half-maximal inhibition (IC50) required 0.47 nM.

`CC#CCOc1nc(-c2ncccn2)nc(NS(=O)(=O)c2ccccc2)c1Oc1ccccc1OC` displayed an IC50 of 4.33 nM.

`COc1ccccc1Oc1c(NS(=O)(=O)c2ccc(C(C)(C)C)cc2)nc(-c2ncccn2)nc1OCCC(C)C` registered an IC50 of 4.78 nM.

`COc1ccccc1Oc1c(NS(C)(=O)=O)nc(-c2ncccn2)nc1OCC1CCC1` registered an IC50 of 1.69 nM.

The molecule `COc1ccccc1Oc1c(NS(=O)(=O)c2ccc(C(C)(C)C)cc2)nc(-c2ncccn2)nc1OCC1CCCN1C` (stereo not given) yielded an IC50 of 1.46 nM.

Regarding `COc1ccccc1Oc1c(NS(C)(=O)=O)nc(-c2ncccn2)nc1OCC1CCCCN1C` (stereo not given), the IC50 is 2.21 nM.

In turn, `CC/C=C/CCOc1nc(-c2ncccn2)nc(NS(=O)(=O)c2ccc(C(C)(C)C)cc2)c1Oc1ccccc1OC` registered an IC50 of 3.99 nM.

For the molecule `COc1ccccc1Oc1c(NS(=O)(=O)c2ccccc2)nc(-c2ncccn2)nc1OCC1CCCN(C)C1` (stereo not given), the IC50 stood at 3.38 nM.

In turn, `COc1ccccc1Oc1c(NS(=O)(=O)c2ccc(C)cc2)nc(-c2ncccn2)nc1OCC1CCCN1C` (stereo not given) registered an IC50 of 3.53 nM.

Take `COc1ccccc1Oc1c(NS(=O)(=O)c2ccc(C(C)(C)C)cc2)nc(-c2ncccn2)nc1OCC1CCCN(C)C1` (stereo not given): half-maximal inhibition (IC50) was put at 1.43 nM.

`COc1ccccc1Oc1c(NS(=O)(=O)c2ccc(C(C)(C)C)cc2)nc(-c2ncccn2)nc1OCC1CCCC1`: the 50% inhibitory concentration (IC50) came to 1.15 nM.

Take `COc1ccccc1Oc1c(NS(=O)(=O)c2ccc(C(C)(C)C)cc2)nc(-c2ncccn2)nc1OCC1CCC1`: the midpoint of inhibition, the IC50, lay at 1.05 nM.

Consider `COc1ccccc1Oc1c(NS(=O)(=O)c2ccc(C)cc2)nc(-c2ncccn2)nc1OCC1CC1`, for which half-maximal inhibition (IC50) required 1.21 nM.

In the case of `COc1ccccc1Oc1c(NS(=O)(=O)c2ccc(C(C)(C)C)cc2)nc(-c2ncccn2)nc1OCC1CCCCN1C` (stereo not given), the half-maximal inhibitory concentration (IC50) stood at 2.59 nM.

The molecule `COc1ccccc1Oc1c(NS(=O)(=O)c2ccc(C(C)(C)C)cc2)nc(-c2ncccn2)nc1OCC(F)F` showed a half-maximal inhibitory concentration (IC50) of 0.77 nM.

On to `CC/C=C/CCOc1nc(-c2ncccn2)nc(NS(=O)(=O)c2ccc(C)cc2)c1Oc1ccccc1OC`, for which half-maximal inhibition (IC50) was put at 3.92 nM.

Regarding `COc1ccccc1Oc1c(NS(=O)(=O)c2ccc(C)cc2)nc(-c2ncccn2)nc1OCC1CCCCN1C` (stereo not given), it took 1.14 nM to reach half-maximal inhibition (IC50).

For `COc1ccccc1Oc1c(NS(C)(=O)=O)nc(-c2ncccn2)nc1OCC1CCCC1`, it took 2.19 nM to reach half-maximal inhibition (IC50).

As to `CC/C=C/CCOc1nc(-c2ncccn2)nc(NS(=O)(=O)c2ccccc2)c1Oc1ccccc1OC`, the IC50 amounted to 0.97 nM.

The molecule `COc1ccccc1Oc1c(NS(=O)(=O)c2ccc(C(C)(C)C)cc2)nc(-c2ncccn2)nc1OCC1CC1` returned an IC50 of 1.22 nM.

`CC#CCOc1nc(-c2ncccn2)nc(NS(C)(=O)=O)c1Oc1ccccc1OC` showed an IC50 of 2.13 nM.

Turning to `COc1ccccc1Oc1c(NS(=O)(=O)c2ccccc2)nc(-c2ncccn2)nc1OCC(F)F`, the IC50 worked out at 0.88 nM.

Molecule `COc1ccccc1Oc1c(NS(C)(=O)=O)nc(-c2ncccn2)nc1OCC1CC1` displayed an IC50 of 2.38 nM.

In turn, `C=CCCOc1nc(-c2ncccn2)nc(NS(C)(=O)=O)c1Oc1ccccc1OC` yielded an IC50 of 2.41 nM.

For the molecule `COc1ccccc1Oc1c(NS(=O)(=O)c2ccccc2)nc(-c2ncccn2)nc1OCC1CCCCN1C` (stereo not given), the IC50 was determined as 1.91 nM.

`COc1ccccc1Oc1c(NS(C)(=O)=O)nc(-c2ncccn2)nc1OCC1CCCN(C)C1` (stereo not given) returned an IC50 of 2.01 nM.

For `C=CCCOc1nc(-c2ncccn2)nc(NS(=O)(=O)c2ccc(C)cc2)c1Oc1ccccc1OC`, the IC50 turned out to be 3.78 nM.

`COc1ccccc1Oc1c(NS(=O)(=O)c2ccc(C)cc2)nc(-c2ncccn2)nc1OCC1CCCC1` showed an IC50 of 1.62 nM.

Consider `COc1ccccc1Oc1c(NS(=O)(=O)c2ccc(C)cc2)nc(-c2ncccn2)nc1OCC(F)F`, for which the concentration for half-maximal inhibition (IC50) turned out to be 4.76 nM.

In the case of `COc1ccccc1Oc1c(NS(=O)(=O)c2ccccc2)nc(-c2ncccn2)nc1OCC1CCCC1`, half-maximal inhibition (IC50) required 2.78 nM.

As to `COc1ccccc1Oc1c(NS(=O)(=O)c2ccccc2)nc(-c2ncccn2)nc1OCC1CCC1`, half-maximal inhibition (IC50) was put at 1.84 nM.

Consider `COc1ccccc1Oc1c(NS(=O)(=O)c2ccc(C)cc2)nc(-c2ncccn2)nc1OCCC(C)C`, for which the concentration for half-maximal inhibition (IC50) was determined as 1.39 nM.

The molecule `COc1ccccc1Oc1c(NS(C)(=O)=O)nc(-c2ncccn2)nc1OCC1CCCN1C` (stereo not given) returned an IC50 of 2.33 nM.

Turning to `CC#CCOc1nc(-c2ncccn2)nc(NS(=O)(=O)c2ccc(C)cc2)c1Oc1ccccc1OC`, the IC50 worked out at 2.99 nM.

Regarding `COc1ccccc1Oc1c(NS(=O)(=O)c2ccccc2)nc(-c2ncccn2)nc1OCCC(C)C`, it took 1.73 nM to reach half-maximal inhibition (IC50).

For `C=CCCOc1nc(-c2ncccn2)nc(NS(=O)(=O)c2ccccc2)c1Oc1ccccc1OC`, the IC50 came to 3.78 nM.

`COc1ccccc1Oc1c(NS(=O)(=O)c2ccc(C)cc2)nc(-c2ncccn2)nc1OCC1CCCN(C)C1` (stereo not given) returned an IC50 of 2.46 nM.

Turning to `COc1ccccc1Oc1c(NS(=O)(=O)c2ccc(C)cc2)nc(-c2ncccn2)nc1OCC1CCC1`, the IC50 was 3.22 nM.

The molecule `COc1ccccc1Oc1c(NS(=O)(=O)c2ccccc2)nc(-c2ncccn2)nc1OCC1CC1` came in with an IC50 of 2.44 nM.

`C=CCCOc1nc(-c2ncccn2)nc(NS(=O)(=O)c2ccc(C(C)(C)C)cc2)c1Oc1ccccc1OC` yielded an IC50 of 1.24 nM.

Usually IC50 stands for the midpoint of a concentration-inhibition curve. Read a low IC50 as greater potency.
